According to patent US20230133169A1, “EGFR INHIBITOR, COMPOSITION, AND METHOD FOR PREPARATION THEREOF” (BETTA PHARMACEUTICALS CO., LTD, priority 2019, published 2023):

Columns and labels:
[1] = molecular target: Ba/F3-Δ19del/T790M/C797S cells (Homo sapiens, UniProt P00533, T790M/C797S, cells depend on it, form not given); assay: Ba/F3-Δ19del/T790M/C797S cell proliferation assay (CellTiter Glo); format: cell-based; details: 72 hours, CTG luminescence, read-out: BaF3 Δ19del/T790M/C797S IC50
Experimental: (§1) RPMI 1640, 10% FBS and 1% PS; DMEM, 10% FBS and 1% PS
(§2) a) The medium was preheated in a 37° C. water bath in advance.
(§3) b) Remove the cryogenic vials from the liquid nitrogen tank, quickly put it into a 37° C. water bath, and completely melt it in 1 min.
(§4) c) Transfer the cell suspension to a 15 mL centrifuge tube containing 8 mL of medium, and centrifuge at 1000 rpm for 5 min.
(§5) d) Discard the supernatant, resuspend the cells in 1 mL of culture medium, transfer it to a 75 cm^2 flask containing 15 mL of culture medium, and culture the cells in a incubator with 5% CO2 at 37° C.
(§6) b) Collect the cells in a 15 mL centrifuge tube and centrifuge at 1000 rpm for 5 min. Discard the supernatant, count to make the cell density at 1×10^4 cells/mL, and then place it in a incubator with 5% CO2 at 37° C.
(§7) a) Dilute the test compound (20 mM stock solution) to 10 mM with 100% DMSO as the starting concentration, and then serially dilute 3 times with a “9+0” concentration in 96-well dilution plate (Cat #P-05525, Labcyte);
(§8) b) Dilute compound solution thereof to 1:100 in medium to prepare 10-fold working solution.
(§9) a) Centrifuge the growth cells in logarithmic phase at 1000 rpm for 5 minutes, resuspend the cells in culture medium, and then count the cells;
(§10) b) Inoculate the cells into a 96-well cell culture plate with a density of 2000 cells/well;
(§11) a) 15 μl of compounds prepared at step 2 were added to cell plate, the final concentrations were […], 370.4, 123.5, 41.2, 13.7, 4.6, 1.5 and 0 nM, and the final concentration of DMSO was 0.1%. The blank control well was a culture medium (0.1% DMSO);
(§12) b) Incubate cells in an incubator for another 72 hours;
(§13) a) Take out the 96-well cell culture plate and add 50 μl of CTG reagent (CellTiter Glo kit, promega, Cat#G7573);
(§14) b) Shake the plate for 2 minutes and let cool at room temperature for 10 minutes;
(§15) c) Read luminous signal value with PerkinElmer reader.
(§16) The data were analyzed by GraphPad Prism 6.0 software to obtain the fitting curve of compound activity.
(§17) Fitting compound IC50 from nonlinear regression equation:
(§18) Y=Min+(Max−Min)/(1+10^((Log IC50−X)*slope));
(§19) X: Logarithm of compound concentration; Y: luminous signal value.

EGFR Δ19del/T790M/C797S = EGFR Δ19del/T790M/C797S (Homo sapiens, UniProt P00533, T790M/C797S, form not given); assay: EGFR Δ19del/T790M/C797S kinase test (mobility variation analysis, Caliper EZ Reader); format: biochemical; details: kinase inhibition, top concentration 300 nM
Experimental: Mobility variation analysis was performed to determine the affinity of the compound for EGFRΔ19del/T790M/C797S. The enzymatic reaction scheme is as follows:
1. Prepare 1*kinase buffer as follows.
2. Prepare compound concentration gradient: The test compound was tested at concentration of 300 nM, diluted with 100% DMSO solution in a 96-well plate to 100-fold final concentration, and then diluted to 3-fold concentration with Precision.10. Compound at each concentration was further diluted to 5-fold final concentration of intermediate dilution.
3. Add 5 μL of each prepared intermediate dilution compounds to the compound wells of 384-well plate respectively, and test the repeated wells of each concentration; add 5 μL of 5% DMSO into the negative control well and the positive control well respectively.
4. Prepare 2.5-fold final concentration of kinase solution with 1×Kinase buffer.
5. Add 10 μL of 2.5-fold final concentration of kinase solution to the compound well and the positive control well; add 10 μL of 1×Kinase buffer to the negative control well.
6. Centrifuge at 1000 rpm for 30 s, shake the reaction plate for well mixing, and then incubate at room temperature for 10 minutes.
7. Prepare a mixture of ATP and Kinase substrate (5-FAM-EEPLYWSFPAKKK-CONH2) at 2.5-fold final concentration with 1×Kinase buffer.
8. Add 10 μL mixture of ATP and substrate at 2.5-fold final concentration to start reaction.
9. Centrifuge the 384-well plate at 1000 rpm for 30 s, shake it well and then incubate it at room temperature for corresponding time.
10. Add 30 μL of stop detection solution to stop the kinase reaction, centrifuge at 1000 rpm for 30 s, and shake it well.
11. Read conversion rate with Caliper EZ Reader.
Convert the conversion rate to inhibition rate:
inhibition %=(max−conversion % sample)/(max−min)*100.
“max”: Mean value of negative control wells; “min”: Mean value of positive control wells; conversion % sample: Sample conversion reading.
GraphPad Prism 5 was used for % inhibition curve fitting to obtain the IC50 value.
The calculation formula: Y=inhibition %_min+(inhibition %_max−inhibition %_min)/(1+(IC50/X)^slope). wherein, Y is inhibition %; X is concentration of compound to be tested.

A431 wild-type cell line = assay: A431 wild-type cell proliferation assay (CellTiter Glo); format: cell-based; details: Homo sapiens, A-431, 72 hours, CTG luminescence
Experimental: as §1, §2, §3, §4, §5, §6, §7, §8, §9, §10, §11, §12, §13, §14, §15, §16, §17, §18, §19

[2] = Pharmacokinetic experiment in rats, oral administration; format: in vivo; details: Sprague-Dawley (SD), rat, 5 mg/kg, male SD rats, 5 mpk, plasma
Experimental: Test 3 Pharmacokinetic Experiment
Male SD rats (3 rats in each group) were administered orally, and fasted overnight from at least 12 hours before administration to 4 hours after administration before the experiment. Blood was taken from the orbital vein. The time points of blood collection for oral administration were: 15 min, 30 min, 1 hr, 2 hr, 4 hr, 7 hr and 24 hr, the dosage of administration was 5 mpk, and the blood collection volume was 300 μL. After anticoagulant treatment with 2.0% EDTA, the blood was centrifuged at 4000 rpm for 5 min, and then about 100 μL was taken and placed for testing at −20° C. Plasma samples were analyzed by liquid chromatography tandem mass spectrometry (LC-MS/MS). The plasma concentration-time data of individual animals were analyzed by the non-compartment model of WinNonlin (V4.1, Pharsight) software, and the pharmacokinetic parameters of the compounds tested were calculated.

Ba/F3-Δ19del/T790M/C797S cells, sequence (P00533 with tags, fused parts or gaps DEL746-750/T790M/C797S, form open): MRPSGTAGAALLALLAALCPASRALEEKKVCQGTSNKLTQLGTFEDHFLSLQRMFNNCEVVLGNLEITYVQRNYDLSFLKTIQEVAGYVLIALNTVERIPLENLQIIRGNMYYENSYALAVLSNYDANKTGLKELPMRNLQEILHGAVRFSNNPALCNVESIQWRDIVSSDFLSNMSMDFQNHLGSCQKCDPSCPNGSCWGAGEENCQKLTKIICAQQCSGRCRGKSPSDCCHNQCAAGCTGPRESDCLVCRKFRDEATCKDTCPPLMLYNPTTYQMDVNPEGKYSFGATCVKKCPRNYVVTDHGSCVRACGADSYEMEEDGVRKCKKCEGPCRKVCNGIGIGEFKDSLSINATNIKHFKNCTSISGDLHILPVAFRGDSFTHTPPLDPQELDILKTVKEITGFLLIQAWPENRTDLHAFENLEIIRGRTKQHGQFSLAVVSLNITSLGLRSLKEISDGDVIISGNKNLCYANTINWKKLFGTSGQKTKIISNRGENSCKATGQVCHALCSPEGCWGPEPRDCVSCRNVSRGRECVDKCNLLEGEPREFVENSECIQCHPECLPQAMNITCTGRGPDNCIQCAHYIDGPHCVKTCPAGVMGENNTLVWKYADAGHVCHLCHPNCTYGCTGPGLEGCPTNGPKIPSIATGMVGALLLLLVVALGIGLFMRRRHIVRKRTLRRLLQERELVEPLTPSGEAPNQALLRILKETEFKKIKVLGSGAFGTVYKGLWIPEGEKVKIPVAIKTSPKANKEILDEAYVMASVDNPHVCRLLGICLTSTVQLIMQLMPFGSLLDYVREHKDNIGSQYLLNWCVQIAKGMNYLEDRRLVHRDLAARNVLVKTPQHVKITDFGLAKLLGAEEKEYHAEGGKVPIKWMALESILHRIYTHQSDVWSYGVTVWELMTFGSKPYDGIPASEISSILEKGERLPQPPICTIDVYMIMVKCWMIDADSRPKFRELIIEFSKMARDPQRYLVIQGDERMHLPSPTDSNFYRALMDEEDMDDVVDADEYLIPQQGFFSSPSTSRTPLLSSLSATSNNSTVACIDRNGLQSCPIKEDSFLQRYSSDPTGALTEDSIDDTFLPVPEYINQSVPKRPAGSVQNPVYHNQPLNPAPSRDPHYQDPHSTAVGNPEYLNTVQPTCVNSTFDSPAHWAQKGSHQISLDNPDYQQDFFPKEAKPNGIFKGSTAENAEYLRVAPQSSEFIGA
EGFR Δ19del/T790M/C797S, sequence (P00533 with tags, fused parts or gaps DEL746-750/T790M/C797S, form open): as above

GI50 [1] [nM] | IC50 (EGFR Δ19del/T790M/C797S) [nM] | IC50 (A431 wild-type cell line) [nM] | AUC(0-t) [2] [ng·h/mL] | Cmax [2] [ng/mL] | half-life ([2]; read-out: t½ (converted)) [h] | Structure (SMILES)
49.9 | 2.7 | – | – | – | – | COc1cc(N2CCC(N3CCN(C)CC3)CC2)ccc1Nc1ncc(Cl)c(Nc2ccc(C)cc2P(C)(C)=O)n1 [Control example 1, reference compound]
302 | 1.6 | – | – | – | – | CCc1cc(Nc2ncc(OC)c(Nc3ccc(C4CC4)cc3P(C)(C)=O)n2)c(OC)cc1N1CCC(N2CCN(C)CC2)CC1 [Compound 5]
30.4 | 0.3 | 886 | – | – | – | CCc1cc(Nc2ncc(Br)c(Nc3ccc(N4CCOCC4)cc3P(C)(C)=O)n2)c(OC)cc1N1CCC(N2CCN(C)CC2)CC1 [Compound 8]
9.7 | 0.3 | 543 | – | – | – | COc1cc(N2CCC(N3CCN(C)CC3)CC2)c(C)cc1Nc1ncc(Br)c(Nc2ccc(C3CC3)cc2P(C)(C)=O)n1 [Compound 10, (2-((5-Bromo-2-((2-methoxy-5-methyl-4-(4-(4-methylpiperazin-1-yl)piperidin-1-yl)phenyl)Amino)pyrimidin-4-yl)amino)-5-cyclopropylphenyl)dimethylphosphine oxide]
5.2 | 0.3 | 604 | – | – | – | COc1cc(N2CCC(N3CCN(C)CC3)CC2)c(-c2ccn(C)c2)cc1Nc1ncc(Br)c(Nc2ccc(C3CC3)cc2P(C)(C)=O)n1 [Compound 9, (2-((5-Bromo-2-((2-methoxy-5-(1-methyl-1H-pyrrol-3-yl)-4-(4-(4-methylpiperazine-1-yl)piperidin-1-yl)phenyl)amino)pyrimidin-4-yl)-amino)-5-cyclopropylphenyl)dimethylphosphine oxide]
38.3 | 1.1 | 1400 | – | – | – | CCc1cc(Nc2ncc(Cl)c(Nc3ccc(C4CCCC4)cc3P(C)(C)=O)n2)c(OC)cc1N1CCC(N2CCN(C)CC2)CC1 [Compound 7, (2-((5-Chloro-2-((5-ethyl-2-methoxy-4-(4-(4-methylpiperazin-1-yl)piperidin-1-yl)phenyl)amino)pyrimidin-4-yl)amino)-5-cyclopentylphenyl)dimethylphosphine oxide]
7.2 | 0.4 | 268 | – | – | – | CCn1cc(-c2cc(Nc3ncc(Br)c(Nc4ccc(C5CC5)cc4P(C)(C)=O)n3)c(OC)cc2N2CCC(N3CCN(C)CC3)CC2)cn1 [Compound 2]
55.4 | 0.4 | 830 | – | – | – | CCn1cc(-c2cc(Nc3ncc(OC)c(Nc4ccc(C5CC5)cc4P(C)(C)=O)n3)c(OC)cc2N2CCC(N3CCN(C)CC3)CC2)cn1 [Compound 3, (5-Cyclopropyl-2-((2-((5-(1-ethyl-1H-pyrazol-4-yl)-2-methoxy-4-(4-(4-methylpiperazin-1-yl)piperidin-1-yl)phenyl)amino)-5-methoxypyrimidin-4-yl)amino)phenyl)dimethylphosphine oxide]
1.2 | 0.3 | 682 | 32900 | 2100 | 9.1 | CCc1cc(Nc2ncc(Br)c(Nc3ccc(C4CC4)cc3P(C)(C)=O)n2)c(OC)cc1N1CCC(N2CCN(C)CC2)CC1 [Compound 1, (2-((5-Bromo-2-((5-ethyl-2-methoxy-4-(4-(4-methylpiperazin-1-yl)piperidin-1-yl)phenyl)amino)pyrimidin-4-yl)amino)-5-cyclopropylphenyl)dimethylphosphine oxide]
15.6 | 0.7 | 674 | – | – | – | CCc1cc(Nc2ncc(Br)c(Nc3ccc(C4CCOCC4)cc3P(C)(C)=O)n2)c(OC)cc1N1CCC(N2CCN(C)CC2)CC1 [Compound 6, (2-((5-Bromo-2-((5-ethyl-2-methoxy-4-(4-(4-methylpiperazin-1-yl)piperidin-1-yl)phenyl)amino)pyrimidin-4-yl)amino)-5-(tetrahydro-2H-pyran-4-yl)phenyl)dimethylphosphine oxide]
– | 1.2 | – | – | – | – | COc1cc(N2CCC(N3CCN(C)CC3)CC2)ccc1Nc1ncc(Cl)c(Nc2ccc(C3CC3)cc2P(C)(C)=O)n1 [Compound 4]
